The source of these data is patent US10344025B2, “GLS1 inhibitors for treating disease” (Board of Regents, The University of Texas System, priority 2014, dated 2019).

The pIC50 is −log10 of the IC50, conventionally taken in molar units.

pIC50: −log10 of the molar value.

This experiment deals with purified recombinant human GAC (GLS1) (Homo sapiens (Human), UniProt O94925). In words: GLS1 Enzymatic Activity Assay (dual-coupled enzymatic assay, resorufin/Amplex UltraRed readout).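 Further: glutamate from GAC coupled via glutamate oxidase and peroxidase to resorufin, read as fluorescence (ex 530, em 590 nm) kinetically or at 20 min, four-parameter logistic IC50 fit.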 Type of experiment: biochemical.
Chain of purified recombinant human GAC (GLS1) (O94925 other isoform, or with tags, fused parts or gaps): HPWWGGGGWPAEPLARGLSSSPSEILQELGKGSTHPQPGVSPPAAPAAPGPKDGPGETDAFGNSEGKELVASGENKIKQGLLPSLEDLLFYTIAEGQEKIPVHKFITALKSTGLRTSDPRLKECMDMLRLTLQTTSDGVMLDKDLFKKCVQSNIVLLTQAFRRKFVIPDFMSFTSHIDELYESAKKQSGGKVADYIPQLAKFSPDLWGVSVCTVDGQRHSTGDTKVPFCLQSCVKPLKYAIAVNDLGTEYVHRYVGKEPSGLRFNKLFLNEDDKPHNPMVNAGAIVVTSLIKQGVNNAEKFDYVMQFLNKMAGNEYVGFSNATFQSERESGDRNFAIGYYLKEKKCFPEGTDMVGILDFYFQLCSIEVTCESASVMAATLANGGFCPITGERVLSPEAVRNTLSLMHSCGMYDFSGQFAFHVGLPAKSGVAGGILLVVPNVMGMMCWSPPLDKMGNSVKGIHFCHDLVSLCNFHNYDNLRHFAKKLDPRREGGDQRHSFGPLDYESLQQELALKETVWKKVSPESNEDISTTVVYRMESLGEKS
Regarding `Cc1ccc(CNC(=O)c2nnc(CCCCn3cc(C(=O)NCC4CC4)nn3)s2)cn1` [Example 70, 5-(4-{4-[(cyclopropylmethyl)carbamoyl]-1H-1,2,3-triazol-1-yl}butyl)-N-[(6-methylpyridin-3-yl)methyl]-1,3,4-thiadiazole-2-carboxamide], the pIC50 is 5.30 to 6.30. Turning to `O=C(NCc1ccccn1)c1cn(CCCCn2cc(C(=O)NCc3ccccn3)nn2)nn1` [Example 71, N-(pyridin-2-ylmethyl)-1-(4-{4-[(pyridin-2-ylmethyl)carbamoyl]-1H-1,2,3-triazol-1-yl}butyl)-1H-1,2,3-triazole-4-carboxamide], the pIC50 was 5.30 to 6.30. In the case of `Cc1ccc(CNC(=O)c2cn(CCCCc3nnc(C(=O)NCC4CN(C(=O)OC(C)(C)C)C4)s3)nn2)cn1` [Example 74, tert-butyl 3-[({5-[4-(4-{[(6-methylpyridin-3-yl)methyl]carbamoyl}-1H-1,2,3-triazol-1-yl)butyl]-1,3,4-thiadiazol-2-yl}formamido)methyl] azetidine-1-carboxylate], the pIC50 was 6.30 to 7.00. Consider `O=C(CC1CC1)Nc1cn(CCCCn2cc(C(=O)NCc3ccccn3)nn2)nn1` [Example 278, 1-{4-[4-(2-cyclopropylacetamido)-1H-1,2,3-triazol-1-yl]butyl}-N-(pyridin-2-ylmethyl)-1H-1,2,3-triazole-4-carboxamide], for which the pIC50 was 5.30 to 6.30.

Regarding `O=C(CC1CC1)Nc1cn(CCCCn2cc(C(=O)NCC3CCCCC3)nn2)nn1` [Example 281, N-(cyclohexylmethyl)-1-{4-[4-(2-cyclopropylacetamido)-1H-1,2,3-triazol-1-yl]butyl}-1H-1,2,3-triazole-4-carboxamide], the pIC50 was 5.30 to 6.30. Consider `O=C(CC1CCCC1)Nc1cn(CCCCn2cc(C(=O)NCC3CCCCC3)nn2)nn1` [Example 282, N-(cyclohexylmethyl)-1-{4-[4-(2-cyclopentylacetamido)-1H-1,2,3-triazol-1-yl]butyl}-1H-1,2,3-triazole-4-carboxamide], for which the pIC50 is 5.30 to 6.30. Consider `O=C(CC1CCCCC1)Nc1cn(CCCCn2cc(C(=O)NCC3CCCCC3)nn2)nn1` [Example 283, 1-{4-[4-(2-cyclohexylacetamido)-1H-1,2,3-triazol-1-yl]butyl}-N-(cyclohexylmethyl)-1H-1,2,3-triazole-4-carboxamide], for which the pIC50 was 5.30 to 6.30. For `O=C(CC1CC1)Nc1cn(CCCCn2cc(C(=O)NCC3CCCC3)nn2)nn1` [Example 287, N-(cyclopentylmethyl)-1-{4-[4-(2-cyclopropylacetamido)-1H-1,2,3-triazol-1-yl]butyl}-1H-1,2,3-triazole-4-carboxamide], the pIC50 is 5.30 to 6.30. On to `O=C(CC1CCCCC1)Nc1cn(CCCCn2cc(C(=O)NCC3CCCC3)nn2)nn1` [Example 289, 1-{4-[4-(2-cyclohexylacetamido)-1H-1,2,3-triazol-1-yl]butyl}-N-(cyclopentylmethyl)-1H-1,2,3-triazole-4-carboxamide], for which the pIC50 is 5.30 to 6.30. In the case of `O=C(Cc1cccnc1)Nc1cn(CCCCn2cc(C(=O)NCC3CCCC3)nn2)nn1` [Example 290, N-(cyclopentylmethyl)-1-(4-{4-[2-(pyridin-3-yl)acetamido]-1H-1,2,3-triazol-1-yl}butyl)-1H-1,2,3-triazole-4-carboxamide] it was 5.30 to 6.30; in that of `O=C(Cc1ccccn1)Nc1cn(CCCCn2cc(C(=O)NCC3CCCC3)nn2)nn1` [Example 291, N-(cyclopentylmethyl)-1-(4-{4-[2-(pyridin-2-yl)acetamido]-1H-1,2,3-triazol-1-yl}butyl)-1H-1,2,3-triazole-4-carboxamide], 5.30 to 6.30; in that of `O=C(Cc1ccccn1)Nc1cn(CCCCn2cc(C(=O)NCc3ccccn3)nn2)nn1` [Example 297, 1-[4-[4-[[2-(2-pyridyl)acetyl]amino]triazol-1-yl]butyl]-N-(2-pyridylmethyl)triazole-4-carboxamide], 5.30 to 6.30. Regarding `O=C(Cc1cccnc1)Nc1cn(CCCCn2cc(C(=O)NCc3ccccn3)nn2)nn1` [Example 298, N-(pyridin-2-ylmethyl)-1-(4-{4-[2-(pyridin-3-yl)acetamido]-1H-1,2,3-triazol-1-yl}butyl)-1H-1,2,3-triazole-4-carboxamide], the pIC50 is 5.30 to 6.30. In the case of `O=C(Cc1ccccn1)Nc1cn(CCCCn2cc(C(=O)NCC3CC3)nn2)nn1` [Example 302, N-(cyclopropylmethyl)-1-(4-{4-[2-(pyridin-2-yl)acetamido]-1H-1,2,3-triazol-1-yl}butyl)-1H-1,2,3-triazole-4-carboxamide], the pIC50 is 5.30 to 6.30. Regarding `O=C(Cc1cccnc1)Nc1cn(CCCCn2cc(C(=O)NCC3CC3)nn2)nn1` [Example 303, N-(cyclopropylmethyl)-1-(4-{4-[2-(pyridin-3-yl)acetamido]-1H-1,2,3-triazol-1-yl}butyl)-1H-1,2,3-triazole-4-carboxamide], the pIC50 is 5.30 to 6.30.

Take `O=C(CC1CCCC1)Nc1cn(CCCCn2cc(C(=O)NCC3CC3)nn2)nn1` [Example 304, 1-{4-[4-(2-cyclopentylacetamido)-1H-1,2,3-triazol-1-yl]butyl}-N-(cyclopropylmethyl)-1H-1,2,3-triazole-4-carboxamide]: the pIC50 was 5.30 to 6.30.

As to `O=C(CC1CC1)Nc1cn(CCCCn2cc(C(=O)NCc3cccnc3)nn2)nn1` [Example 308, 1-{4-[4-(2-cyclopropylacetamido)-1H-1,2,3-triazol-1-yl]butyl}-N-(pyridin-3-ylmethyl)-1H-1,2,3-triazole-4-carboxamide], the pIC50 was 5.30 to 6.30. Take `O=C(CN1CC(F)(F)C1)Nc1cn(CCCCn2cc(C(=O)NCc3ccccn3)nn2)nn1` [Example 323, 1-(4-{4-[2-(3,3-difluoroazetidin-1-yl)acetamido]-1H-1,2,3-triazol-1-yl}butyl)-N-(pyridin-2-ylmethyl)-1H-1,2,3-triazole-4-carboxamide]: the pIC50 was 5.30 to 6.30. For the molecule `O=C(CN1CC(F)C1)Nc1cn(CCCCn2cc(C(=O)NCc3ccccn3)nn2)nn1` [Example 324, 1-(4-{4-[2-(3-fluoroazetidin-1-yl)acetamido]-1H-1,2,3-triazol-1-yl}butyl)-N-(pyridin-2-ylmethyl)-1H-1,2,3-triazole-4-carboxamide], the pIC50 was 5.30 to 6.30. Regarding `O=C(CN1CCC(F)(F)C1)Nc1cn(CCCCn2cc(C(=O)NCc3ccccn3)nn2)nn1` [Example 325, 1-(4-{4-[2-(3,3-difluoropyrrolidin-1-yl)acetamido]-1H-1,2,3-triazol-1-yl}butyl)-N-(pyridin-2-ylmethyl)-1H-1,2,3-triazole-4-carboxamide], the pIC50 was 5.30 to 6.30. Then `O=C(CN1CCC(F)(F)CC1)Nc1cn(CCCCn2cc(C(=O)NCc3ccccn3)nn2)nn1` [Example 326, 1-(4-{4-[2-(4,4-difluoropiperidin-1-yl)acetamido]-1H-1,2,3-triazol-1-yl}butyl)-N-(pyridin-2-ylmethyl)-1H-1,2,3-triazole-4-carboxamide], with 5.30 to 6.30; and `O=C(Cc1cccc(OC(F)(F)F)c1)Nc1cn(CCCCn2cc(C(=O)NCc3cc(OC(F)(F)F)ccc3F)nn2)nn1` [Example 333, N-{[2-fluoro-5-(trifluoromethoxy)phenyl]methyl}-1-[4-(4-{2-[3-(trifluoromethoxy)phenyl]acetamido}-1H-1,2,3-triazol-1-yl)butyl]-1H-1,2,3-triazole-4-carboxamide], with 5.30 to 6.30.

For `Cc1ccc(CNC(=O)c2cn(CCCCn3cc(NC(=O)CN4CC(F)C4)nn3)nn2)cn1` [Example 348, 1-(4-{4-[2-(3-fluoroazetidin-1-yl)acetamido]-1H-1,2,3-triazol-1-yl}butyl)-N-[(6-methylpyridin-3-yl)methyl]-1H-1,2,3-triazole-4-carboxamide], the pIC50 is 5.30 to 6.30.

`O=C(CN1CC(F)C1)Nc1cn(CCCCn2cc(C(=O)NCc3cc(Cl)ccc3F)nn2)nn1` [Example 349, N-[(5-chloro-2-fluorophenyl)methyl]-1-(4-{4-[2-(3-fluoroazetidin-1-yl)acetamido]-1H-1,2,3-triazol-1-yl}butyl)-1H-1,2,3-triazole-4-carboxamide]: the pIC50 was 6.30 to 7.00. For the molecule `Cc1ccc(CNC(=O)c2cn(CCCCn3cc(NC(=O)CN4CC(F)(F)C4)nn3)nn2)cn1` [Example 351, 1-(4-{4-[2-(3,3-difluoroazetidin-1-yl)acetamido]-1H-1,2,3-triazol-1-yl}butyl)-N-[(6-methylpyridin-3-yl)methyl]-1H-1,2,3-triazole-4-carboxamide], the pIC50 is 5.30 to 6.30.

For `Cc1ccc(CNC(=O)c2cn(CCCCn3cc(NC(=O)CN4CCC(F)(F)C4)nn3)nn2)cn1` [Example 354, 1-(4-{4-[2-(3,3-difluoropyrrolidin-1-yl)acetamido]-1H-1,2,3-triazol-1-yl}butyl)-N-[(6-methylpyridin-3-yl)methyl]-1H-1,2,3-triazole-4-carboxamide], the pIC50 is 5.30 to 6.30.

For `O=C(CN1CCC(F)(F)C1)Nc1cn(CCCCn2cc(C(=O)NCc3ncccc3F)nn2)nn1` [Example 357, 1-(4-{4-[2-(3,3-difluoropyrrolidin-1-yl)acetamido]-1H-1,2,3-triazol-1-yl}butyl)-N-[(3-fluoropyridin-2-yl)methyl]-1H-1,2,3-triazole-4-carboxamide], the pIC50 is 5.30 to 6.30. Turning to `Cc1ccc(CNC(=O)c2cn(CCCCn3cc(NC(=O)CN4CCC(F)(F)CC4)nn3)nn2)cn1` [Example 358, 1-(4-{4-[2-(4,4-difluoropiperidin-1-yl)acetamido]-1H-1,2,3-triazol-1-yl}butyl)-N-[(6-methylpyridin-3-yl)methyl]-1H-1,2,3-triazole-4-carboxamide], the pIC50 is 5.30 to 6.30.

Regarding `O=C(CN1CCC(F)(F)CC1)Nc1cn(CCCCn2cc(C(=O)NCc3ncccc3F)nn2)nn1` [Example 361, 1-(4-{4-[2-(4,4-difluoropiperidin-1-yl)acetamido]-1H-1,2,3-triazol-1-yl}butyl)-N-[(3-fluoropyridin-2-yl)methyl]-1H-1,2,3-triazole-4-carboxamide], the pIC50 is 5.30 to 6.30. On to `O=C(Cc1ccccn1)Nc1cn(CC(F)CCn2cc(C(=O)NCc3ccccn3)nn2)nn1` (stereo not drawn) [Example 362, 1-(3-fluoro-4-{4-[2-(pyridin-2-yl)acetamido]-1H-1,2,3-triazol-1-yl}butyl)-N-(pyridin-2-ylmethyl)-1H-1,2,3-triazole-4-carboxamide], for which the pIC50 was 5.30 to 6.30.
